These results are taken from the NIST ThermoML archive (doi:10.1016/j.fluid.2009.05.007).

Numbers after ± are expanded uncertainties.

This series is described as follows: activity coefficient (dimensionless); of the first substance listed, at infinite dilution; xn = mol fraction of the nth substance listed. To be noted: 101 kPa, Liquid, dilutor technique, x1 = 0.

For the compound `C=CCCCCCCCC` [1-decene] + CCCCn1cc[n+](C)c1.F[B-](F)(F)F, the activity coefficient is, setting by setting: (323.16 K) 224 ± 11; (333.17 K) 207 ± 10; (343.17 K) 190 ± 9.5; (353.16 K) 180 ± 9.
`CCCCCCCCCC` [decane] + CCCCn1cc[n+](C)c1.F[B-](F)(F)F: the activity coefficient amounted to 620 ± 31 (323.12 K), 443 ± 22 (343.21 K) and 383 ± 19 (353.16 K).
`CCCCCCC` [heptane] + CCCCn1cc[n+](C)c1.F[B-](F)(F)F: the activity coefficient (323.16 K) came to 95.8 ± 4.8; the activity coefficient (328.16 K) turned out to be 89 ± 4.5; the activity coefficient (333.14 K) worked out at 83.8 ± 4.2; the activity coefficient (338.14 K) worked out at 80.1 ± 4; the activity coefficient (343.22 K) was 75.3 ± 3.8.
The matching figures for `CCCCCCCC` [octane] + CCCCn1cc[n+](C)c1.F[B-](F)(F)F: 170 ± 8.5, 160 ± 8, 155 ± 7.7, 146 ± 7.3 and 143 ± 7.1.
In the case of `CCCCCCCCCC` [decane] + CCCCCCn1cc[n+](C)c1.F[B-](F)(F)F, the activity coefficient runs as follows: (318.21 K) 129 ± 6.4; (328.16 K) 115 ± 5.8; (338.14 K) 110 ± 5.5; (348.16 K) 104 ± 5.2.
On to `CCCCCC` [hexane] + CCCCn1cc[n+](C)c1.F[B-](F)(F)F, for which the activity coefficient was 66.7 ± 3.3 (323.15 K), 63.3 ± 3.2 (328.18 K), 61 ± 3 (333.2 K) and 54.9 ± 2.8 (343.26 K).
Consider `C=CCCCCCC` [oct-1-ene] + CCCCCCn1cc[n+](C)c1.F[B-](F)(F)F, for which the activity coefficient runs as follows: (318.11 K) 29.4 ± 1.5; (328.19 K) 28.1 ± 1.4; (338.14 K) 27.2 ± 1.4; (348.11 K) 25.8 ± 1.3.
As to `CCCCCCCCC` [nonane] + CCCCn1cc[n+](C)c1.F[B-](F)(F)F, the activity coefficient is 334 ± 17 (323.12 K), 270 ± 14 (343.21 K) and 225 ± 11 (353.16 K).
In the case of `C=CCCCC` [hex-1-ene] + CCCCCCn1cc[n+](C)c1.F[B-](F)(F)F, the activity coefficient runs as follows: (318.11 K) 13 ± 0.65; (328.19 K) 12.1 ± 0.61; (338.17 K) 11.9 ± 0.6; (348.15 K) 11.4 ± 0.57.
`C=CCCCCCCCC` [1-decene] + CCCCCCn1cc[n+](C)c1.F[B-](F)(F)F: the activity coefficient reads like this: (318.2 K) 54.6 ± 2.7; (328.16 K) 48.7 ± 2.4; (338.17 K) 46 ± 2.3.
In the case of `C=CCCCCCC` [oct-1-ene] + CCCCn1cc[n+](C)c1.F[B-](F)(F)F, the activity coefficient is, setting by setting: (323.16 K) 88.6 ± 4.4; (333.24 K) 84.8 ± 4.2; (343.15 K) 78.8 ± 3.9; (353.23 K) 74.2 ± 3.7.
Consider `CCCCCCCCC` [nonane] + CCCCCCn1cc[n+](C)c1.F[B-](F)(F)F, for which the activity coefficient by setting is: (318.21 K) 88 ± 4.4; (328.16 K) 81.2 ± 4.1; (338.14 K) 76.7 ± 3.8; (348.16 K) 72.9 ± 3.6.
As for `CCCCCCC` [heptane] + CCCCCCn1cc[n+](C)c1.F[B-](F)(F)F, the activity coefficient (303.16 K) worked out at 45 ± 2.2; the activity coefficient (318.14 K) was 42 ± 2.1; the activity coefficient (323.27 K) was determined as 41.1 ± 2; the activity coefficient (333.11 K) amounted to 38.9 ± 1.9; the activity coefficient (343.09 K) came to 36.8 ± 1.8.
In the case of `CCCCCCCC` [octane] + CCCCCCn1cc[n+](C)c1.F[B-](F)(F)F, the activity coefficient reads like this: (303.16 K) 69.6 ± 3.5; (318.14 K) 62.3 ± 3.1; (323.27 K) 59.5 ± 3; (333.11 K) 56 ± 2.8; (343.09 K) 52.5 ± 2.6.
On to `C=CCCCCC` [1-heptene] + CCCCCCn1cc[n+](C)c1.F[B-](F)(F)F, for which the activity coefficient is 19.6 ± 0.98 (318.11 K), 19.3 ± 0.97 (328.19 K), 18.8 ± 0.94 (338.14 K) and 18 ± 0.9 (348.11 K).
Take `C=CCCCCC` [1-heptene] + CCCCn1cc[n+](C)c1.F[B-](F)(F)F: the activity coefficient runs as follows: (323.16 K) 52 ± 2.6; (333.24 K) 50.3 ± 2.5; (343.15 K) 46.6 ± 2.3; (353.23 K) 43.2 ± 2.2.
For `C=CCCCC` [hex-1-ene] + CCCCn1cc[n+](C)c1.F[B-](F)(F)F, the activity coefficient (323.16 K) turned out to be 30.1 ± 1.5, the activity coefficient (333.15 K) was 27.8 ± 1.4, the activity coefficient (343.22 K) is 25.7 ± 1.3 and the activity coefficient (353.14 K) amounted to 23.9 ± 1.2.
